Literature values, collected in patent US20110059177A1, “Cardioplegia Solution for Cardiac Surgery” (priority 2008, published 2011).

Tests used:
[1] = tested on: common carotid artery IMT (intima-media thickness); conditions: patients with coronary artery disease, 6 months

SMILES | common carotid artery IMT (intima-media thickness) [1] | markers of inflammation [1] | activity level relative to tetracycline (150 mg of minocycline vs 250 mg of tetracycline at 24-48 hours) [times] | serum levels relative to most other tetracyclines (result of long half-life)
CCOC(=O)C1=C(C)NC(C)=C(C(=O)OCC)C1c1ccccc1/C=C/C(=O)OC(C)(C)C [Lacidipine] | significant reduction | decrease | – | –
CN(C)c1ccc(O)c2c1C[C@H]1C[C@H]3[C@H](N(C)C)C(O)=C(C(N)=O)C(=O)[C@@]3(O)C(O)=C1C2=O [Minocycline] | – | – | 16 | 2-4 times
